Experimental data as given in article PMC9503518, “Antibacterial and Antifungal Properties of a Novel Antimicrobial Peptide GK-19 and Its Application in Skin and Soft Tissue Infections Induced by MRSA or Candida albicans” (Pharmaceutics, 2022).
Where no end group is shown, it is not given here.

Columns and labels:
[1] = Peptide stability in rat serum by HPLC; type: in vitro ADME; conditions: 10 mg/mL in rat serum, 37 °C, 200 rpm, 24 h, HPLC peak area 220 nm, repeated three times; read-out: peptide remaining after 24 h of co-incubation with rat serum
Method: Antimicrobial peptides were dissolved in water or rat serum with a concentration of 10 mg/mL. The solution was incubated at 37 °C, 200 rpm for different time periods, and diluted 50 times for the HPLC analysis. In water, the incubation time was 0 h and 48 h. In rat serum, the incubation time was 0, 2, 4, 7, 12, 24 or 48 h. Each incubation condition was repeated three times. HPLC was conducted on a Waters HPLC system, which consisted of a 2996 photodiode array detector, a 2695 separation module and a temperature control column oven. Column: Sinochrom ODS-BP, 5 μm, 4.6 × 250 mm (Dalian Elite Analytical Instruments Co., Ltd., Dalian, China). Mobile phase: A: 100% ACN + 0.1% TFA; B: 100% Water + 0.1% TFA. Gradient elution: 0–20 min, 95% B–100% A; 20–25 min, 100% A. Detection wavelength: 220 nm. Flow rate: 1 mL/min. Sample volume: 50 μL (0.2 mg/mL).

Kunming mice = conditions: mouse, in vivo, iv
Method: Forty healthy male Kunming mice weighing ~25 g (5–6 weeks old) were injected intravenously with 100 μL of GK-19 with concentrations of 5 μmol/kg (n = 15) or 25 μmol/kg (n = 15). Mice blood samples (n = 5, per group and per time point) were collected from the mice’s eyeballs on days 1, 3 and 7 after injection for renal function test and liver function test. Meanwhile, major organs including lungs, heart, kidneys, liver and spleen were also harvested for hematoxylin and eosin staining on days 1, 3 and 7 after injection. To monitor the body weight changes in mice after injection of GK-19, five healthy male Kunming mice weighing ~25 g were injected intravenously with 100 μL of GK-19 with concentrations of 25 μmol/kg. Mice weights were recorded daily for seven days.
(§1) The hematoxylin and eosin staining in this study was carried out by Servicebio (Wuhan, China). Briefly, the obtained skin tissues were soaked in 4% paraformaldehyde solution (Beyotime, China) and fixed for more than 24 h. Then, they were dehydrated and embedded with paraffin, and tissue sections having thicknesses of 4 μm were prepared. After deparaffinization and rehydration, hematoxylin and eosin staining was performed.

C. albicans = conditions: mouse, in vivo, 2 h, 50 μM
Method: (§2) The scalded mice models combined with SSTIs by MRSA or C. albicans were constructed. Fifty normal male Kunming mice (5–6 weeks old) weighing ~25 g were anesthetized by isoflurane using a small animal anesthesia machine (R640, RWD Life Science, China). After skin preparation and disinfection, a custom-made circular iron (diameter: 8 mm) (shown in Figure S4) was applied to both sides of the spine of the mice for 10 s at 300 °C, resulting in four scalded wounds. Mice were injected subcutaneously with 5 mg/kg meloxicam (Aladdin, Shanghai, China) for four days (once per day) after scalding for pain relief. Two days after scalding, the skin tissues of the scalded areas were removed carefully, and about 30 μL of 1 × 10^7 CFU/mL of MRSA or C. albicans was applied evenly onto the surfaces of the wounds. The mice were returned to the original feeding environment after the microbial fluid was completely absorbed (1.5–2 h), with two mice per cage. Corncob granules with SPF level were used as padding.
(§3) Two days after microbe inoculating, the scalded wounds of each mouse were divided into four groups randomly. […] The mice were returned to the original feeding environment after the solutions were completely absorbed. The treatment lasted for 12–16 days. Photographs of the wound areas were taken every two days using an iPhone 11 and the wound areas were measured every two days using Image J software (152-win-java8, Bethesda, MD, USA). The average wound areas on day two were used as the reference (100% unhealed) to normalized wound areas. Skin tissues of the wound areas were removed carefully at different time points (n = 5 for each time point) and weighted in a sterile environment. For MRSA infection, 10 mg of the wound tissues was dispersed into 1000 μL of sterile saline solution and the tissue solution was ground into suspension in a tissuelyser (Tissuelyser LT, Servicebio). Then, the tissue suspension was diluted with sterile saline solution 10 times and plated on MHA with a sample volume of 50 μL. For C. albicans infection, 10 mg of the wound tissues was dispersed into 200 μL of sterile saline solution and the tissue solution was also ground into suspension in the tissuelyser. The tissue suspension was then plated on PDA directly with a sample volume of 20 μL. After culturing overnight, the colonies were counted using Image J software or human eyes. In addition, the skin tissues of the wound area were removed carefully at different time points and dispersed into a 4% paraformaldehyde solution for further use.
as §1

MRSA = conditions: mouse, in vivo, 2 h, 50 μM
Method: as §2, §3, §1

rat erythrocytes = conditions: rat RBC suspension in PBS, up to 100 μM, 37 °C, 1 h, OD 576 nm, 1% Triton X-100 = 100%, six replicates
Method: The hemolysis assay was carried out as reported in the literature [22]. Briefly, healthy male rats weighing ~300 g were anesthetized by isoflurane using a small animal anesthesia machine (R640, RWD Life Science, Shenzhen, China). Fresh rat blood samples were drawn from the ventral main vein and collected into an ethylene diamine tetraacetic acid (EDTA) treated anticoagulation tube. The collected blood samples were centrifuged at 4 °C, 350× g for five minutes. Red blood cells (RBCs) were pipetted and washed three times with cold PBS. […] These tubes were incubated at 37 °C, 1000 rpm in a BG200 dry bath incubator (Hangzhou LongGene Scientific Instruments Co., Ltd., Hangzhou, China) for 1 h. Then, the tubes were centrifuged at 350× g for 5 min. Next, 20 μL of the supernatants was mixed with 180 μL of PBS. Afterwards, 100 μL of the mixture was transferred into 96-well plates and hemoglobin release was monitored at 576 nm using a Multilabel Reader Varioskan Flash (Thermo Fisher). The RBC suspension in PBS was used as a negative control. The absorbance of the wells containing 1% Triton X-100 was taken as 100% hemolysis. The percentage of hemolysis was calculated using this formula:Hemolysis (%) = [(OD576 nm of the peptide solution − OD576 nm of the negative control)/(OD576 nm of the positive control − OD576 nm of the negative control)] × 100. (3) […]

Question: For GFLFKLIPKAIKKLISKFK [GK-19], which remaining at 24 h, 10 mg/mL [1] is on record?
Answer: Its remaining at 24 h, 10 mg/mL is > 50%.

Question: And the body weight change (Kunming mice)?
Answer: The body weight change was “gradual gain in body weight”.

Question: And the “histology of major organs (heart, liver, spleen, lungs, kidneys)” value (Kunming mice)?
Answer: The value was “no observable tissue damage, necrosis, or inflammation”.

Question: And the “liver and renal function tests” value (Kunming mice)?
Answer: Its value is “no difference from that in healthy mice”.

Question: And the “C. albicans suppressed (inhibition rate) at day eight compared with saline solution groups” value (C. albicans)?
Answer: The value was “more than 97%”.

Question: What about the “MRSA suppressed (inhibition rate) at day eight compared with saline solution groups” value (MRSA) of the same sequence?
Answer: The value was “more than 95%”.

Question: And the hemolytic activity (rat erythrocytes)?
Answer: Its hemolytic activity is “negligible hemolytic activity”.
